Assay results: patent US4148996A, “3,7-Disubstituted cephalosporins” (Societa Farmaceutici Italia S.p.A., priority 1976, dated 1979)
In brackets after ≈: the same amount, converted by molar mass. Read-outs that look alike come from different tables or passages of the source.

Columns and labels:
S.aureus = experiment: in vitro MIC by serial dilution, S.aureus; type: cell-based, Staphylococcus aureus; settings: for MIC: Staphylococcus aureus, read-out: MIC (minimal inhibitory concentration); for antistaphylococcal activity: in words, compared with cephazolin and cephalothin
Protocol: (§1) A series of comparative tests was carried out in vitro with the method of serial dilutions in Penassay Seed Broth Difco inoculated with 10^4 bacteria/ml (overnight cultures).
(§2) Table 1 below reports the results of the above assays as MIC (minimal inhibitory concentration, mcg/ml).

S.pyogenes = experiment: in vitro MIC by serial dilution, S.pyogenes; type: cell-based; settings: Streptococcus pyogenes, read-out: MIC (minimal inhibitory concentration)
Protocol: as §1, §2

E.coli B = experiment: in vitro MIC by serial dilution, E.coli B; type: cell-based; settings: Escherichia coli, read-out: MIC (minimal inhibitory concentration)
Protocol: as §1, §2

K.pneumoniae = experiment: in vitro MIC by serial dilution, K.pneumoniae; type: cell-based; settings: Klebsiella pneumoniae, read-out: MIC (minimal inhibitory concentration)
Protocol: as §1, §2

S.flexneri = experiment: in vitro MIC by serial dilution, S.flexneri; type: cell-based; settings: Shigella flexneri, read-out: MIC (minimal inhibitory concentration)
Protocol: as §1, §2

P.mirabilis = experiment: in vitro MIC by serial dilution, P.mirabilis; type: cell-based; settings: Proteus mirabilis, read-out: MIC (minimal inhibitory concentration)
Protocol: as §1, §2

S.abortivoequina = experiment: in vitro MIC by serial dilution, S.abortivoequina; type: cell-based; settings: Salmonella, read-out: MIC (minimal inhibitory concentration)
Protocol: as §1, §2

Staphylococcus aureus = experiment: in vivo therapeutic activity on mice experimentally infected with Staphylococcus aureus; parameters: species or system male Swiss Cobs albino mice; settings: for ED50: Staphylococcus aureus, sc, 168 h, Table 2, 2 LD50/mouse i.p., subcutaneous treatment 4 h after infection, 7 days, read-out: ED50 (dose effective in curing 50% of the infected mice); for effectiveness on experimental staphylococcal infections: in words, compared with cephazolin and cephalothin
Protocol: (§3) In vivo tests for therapeutic activity were carried out on mice experimentally infected with Staphylococcus aureus and Salmonella abortivoequina (Infective dose: 2 LD50 /mouse i.p.); groups of 6 male Swiss Cobs albino mice were used. The infected animals were treated by the subcutaneous route 4 h after infection. The mortality rate was recorded every day for 7 days. The activity was assessed as ED50 (Dose effective in curing 50% of the infected mice as mg/Kg--see Reed and Muench, Am. J. Hyg. 27, 493, 1938.)

S.typhimurium = experiment: in vitro MIC by serial dilution, S.typhimurium; type: cell-based; settings: Salmonella enterica, read-out: MIC (minimal inhibitory concentration)
Protocol: as §1, §2

[1] = tested on: Salmonella abortivoequina; experiment: in vivo therapeutic activity on mice experimentally infected with Salmonella abortivoequina; parameters: species or system male Swiss Cobs albino mice; settings: sc, 168 h
Protocol: as §3

[2] = S.aureus, serial dilutions in Penassay Seed Broth Difco, 10^4 bacteria/ml
[3] = S.pyogenes, serial dilutions in Penassay Seed Broth Difco, 10^4 bacteria/ml
[4] = E.coli B, serial dilutions in Penassay Seed Broth Difco, 10^4 bacteria/ml
[5] = K.pneumoniae, serial dilutions in Penassay Seed Broth Difco, 10^4 bacteria/ml
[6] = S.flexneri, serial dilutions in Penassay Seed Broth Difco, 10^4 bacteria/ml
[7] = P.mirabilis, serial dilutions in Penassay Seed Broth Difco, 10^4 bacteria/ml
[8] = S.abortivoequina, serial dilutions in Penassay Seed Broth Difco, 10^4 bacteria/ml
[9] = S.typhimurium, serial dilutions in Penassay Seed Broth Difco, 10^4 bacteria/ml
[10] = mice infected with Salmonella abortivo equina, subcutaneous 4 h after infection, read-out: ED50

SMILES	MIC (S.aureus; [2]) [µg/mL]	antistaphylococcal activity (S.aureus)	MIC (S.pyogenes; [3]) [µg/mL]	MIC (E.coli B; [4]) [µg/mL]	MIC (K.pneumoniae; [5]) [µg/mL]	MIC (S.flexneri; [6]) [µg/mL]	MIC (P.mirabilis; [7]) [µg/mL]	MIC (S.abortivoequina; [8]) [µg/mL]	ED50 (Staphylococcus aureus) [mg/kg]	MIC (S.typhimurium; [9]) [µg/mL]	further results
O=C(Cc1ccccc1)NC1C(=O)N2C(C(=O)O)=C(CSc3cnccn3)CS[C@H]12 (some centres unmarked) [Compound 308, 7-phenylacetamido-3-pyrazinylthiomethyl-3-cephem-4-carboxylic acid]	0.012 (≈ 0.0271 µM)	excellent antistaphylococcal activity, clearly superior to that of known cephalosporins	1.5 (≈ 3.39 µM)	1 to 2 (≈ 2.26 to 4.52 µM)	0.75 (≈ 1.69 µM)	50 (≈ 113 µM)	50 (≈ 113 µM)	100 (≈ 226 µM)	17.5		effectiveness on experimental staphylococcal infections (Staphylococcus aureus): more effective than cephazolin and cephalothin
NC(=O)c1cncc(SCC2=C(C(=O)O)N3C(=O)C(NC(=O)Cc4cccs4)C3SC2)n1 (centres unmarked) [Compound 313, 7-(2-thienyl)-acetamido-3-(6-carboxamidopyrazin-2-ylthiomethyl)-3-cephem-4-carboxylic acid]	0.012 (≈ 0.0244 µM)	excellent antistaphylococcal activity, clearly superior to that of known cephalosporins	1.25 (≈ 2.54 µM)	2.5 (≈ 5.09 µM)	1.25 (≈ 2.54 µM)	6.25 (≈ 12.7 µM)	50 (≈ 102 µM)		20	12.5 (≈ 25.4 µM)	MIC (S.abortivoequina): 6.25 µg/mL (≈ 12.7 µM); effectiveness on experimental staphylococcal infections (Staphylococcus aureus): more effective than cephazolin and cephalothin
O=C(CSc1cnccn1)NC1C(=O)N2C(C(=O)O)=C(CSc3cncc(Cl)n3)CSC12 (centres unmarked) [Compound 315, 7-pyrazinylthioacetamido-3-(6-chloropyrazin-2-ylthiomethyl)-3-cephem-4-carboxylic acid]	0.006 (≈ 0.0117 µM)	excellent antistaphylococcal activity, clearly superior to that of known cephalosporins	1.25 (≈ 2.45 µM)	2.5 (≈ 4.89 µM)	1.25 (≈ 2.45 µM)	50 (≈ 97.8 µM)	> 50	> 50	40	> 50	
COc1cncc(SCC2=C(C(=O)O)N3C(=O)C(NC(=O)Cc4cccs4)C3SC2)n1 (centres unmarked) [Compound 321, 7-(2-Thienyl)-acetamido-3-(6-methoxypyrazin-2-ylthiomethyl)-3-cephem-4-carboxylic acid]	0.037 (≈ 0.0773 µM)		0.12 (≈ 0.251 µM)	1.25 (≈ 2.61 µM)	0.25 (≈ 0.522 µM)	10 (≈ 20.9 µM)	10 (≈ 20.9 µM)	20 (≈ 41.8 µM)	15	20 (≈ 41.8 µM)	ED50 [1, 10]: 50 mg/kg
O=C(Cc1ccccc1)NC1C(=O)N2C(C(=O)O)=C(CSc3cncc(Cl)n3)CSC12 (centres unmarked) [Compound 310, 7-phenylacetamido-3-(6-chlorpyrazin-2-ylthiomethyl)-3-cephem-4-carboxylic acid]	0.06 (≈ 0.126 µM)	excellent antistaphylococcal activity, clearly superior to that of known cephalosporins	6.2 (≈ 13 µM)	0.6 (≈ 1.26 µM)	0.1 (≈ 0.21 µM)	> 50		50 (≈ 105 µM)	35		
CC(=O)OCC1=C(C(=O)O)N2C(=O)[C@@H](NC(=O)Cc3cccs3)[C@H]2SC1 [cephalothin, reference compound]	0.1 (≈ 0.252 µM)			1.25 (≈ 3.15 µM)		1.5 (≈ 3.78 µM)			30		MIC (S.pyogenes): 1.25 µg/mL (≈ 3.15 µM); MIC (K.pneumoniae): 0.3 µg/mL (≈ 0.757 µM); MIC (P.mirabilis): 6.2 µg/mL (≈ 15.6 µM); MIC (S.abortivoequina): 1.5 µg/mL (≈ 3.78 µM); MIC (S.typhimurium; TYPHIMURIUM): 3 µg/mL (≈ 7.57 µM); ED50 ([1]; Salmonella): 50 mg/kg
O=C(Cc1ccccc1)NC1C(=O)N2C(C(=O)O)=C(CSc3c[n+]([O-])ccn3)CSC12 (centres unmarked) [356/307, 7-phenylacetamido-3-(pyrazin-2-ylthiomethyl-4-oxide)-3-cephem-4-carboxylicacid]	0.012 (≈ 0.0262 µM)	excellent antistaphylococcal activity, clearly superior to that of known cephalosporins	1.5 (≈ 3.27 µM)	6 (≈ 13.1 µM)	1.5 (≈ 3.27 µM)	12.5 (≈ 27.3 µM)		25 (≈ 54.5 µM)			
COc1nccnc1SCC1=C(C(=O)O)N2C(=O)C(NC(=O)Cc3cccs3)C2SC1 (centres unmarked) [Compound 317, 7-(2-thienyl)-acetamido-3-(3-methoxy-pyrazin-2-ylthiomethyl)-3-cephem-4-carboxylic acid]	0.005 (≈ 0.0104 µM)			1.5 (≈ 3.13 µM)	1.5 (≈ 3.13 µM)	50 (≈ 104 µM)	50 (≈ 104 µM)	> 50		> 50	
CC(=O)OCC1=C(C(=O)O)N2C(=O)C(NC(=O)CSc3cnccn3)C2SC1 (centres unmarked) [Compound 312, 7-pyrazinylthioacetamidocephalosporanic acid]			3.1 (≈ 7.3 µM)		1.5 (≈ 3.53 µM)			25 (≈ 58.9 µM)	40		MIC (S.aureus): 0.12 µg/mL (≈ 0.283 µM); MIC (E.coli B): 5 µg/mL (≈ 11.8 µM); MIC (S.flexneri): 12.5 µg/mL (≈ 29.4 µM)
O=C(Cc1cccs1)NC1C(=O)N2C(C(=O)O)=C(CSc3cnccn3)CSC12 (centres unmarked) [Compound 314, 7-(2-thienyl)-acetamido-3-pyrazinylthiomethyl-3-cephem-4-carboxylic acid]	0.003 (≈ 0.00669 µM)		1.25 (≈ 2.79 µM)	0.6 (≈ 1.34 µM)	0.6 (≈ 1.34 µM)	6.25 (≈ 13.9 µM)	25 (≈ 55.7 µM)		20		MIC (S.abortivoequina): 6.25 µg/mL (≈ 13.9 µM); MIC (S.typhimurium; TYPHIMURIUM): 6.25 µg/mL (≈ 13.9 µM)
Cc1nnc(SCC2=C(C(=O)O)N3C(=O)[C@@H](NC(=O)Cn4cnnn4)[C@H]3SC2)s1 [cephazolin, reference compound]	0.1 (≈ 0.22 µM)		1.25 (≈ 2.75 µM)	1.25 (≈ 2.75 µM)	0.6 (≈ 1.32 µM)	1.5 (≈ 3.3 µM)	3.1 (≈ 6.82 µM)	1.25 (≈ 2.75 µM)	30	1.5 (≈ 3.3 µM)	ED50 [1, 10]: 25 mg/kg
NC(=O)c1cncc(SCC2=C(C(=O)O)N3C(=O)C(NC(=O)Cc4ccccc4)C3SC2)n1 (centres unmarked) [Compound 311, 7-phenylacetamido-3-(6-carboxamidopyrazin-2-ylthiomethyl)-3-cephem-4-carboxylic acid]	0.06 (≈ 0.124 µM)		1.5 (≈ 3.09 µM)	5 (≈ 10.3 µM)	1.5 to 2.5 (≈ 3.09 to 5.15 µM)	12.5 (≈ 25.7 µM)	> 50	> 50	17.5		effectiveness on experimental staphylococcal infections (Staphylococcus aureus): more effective than cephazolin and cephalothin
O=C(Cn1cnnn1)NC1C(=O)N2C(C(=O)O)=C(CSc3cnccn3)CSC12 (centres unmarked) [Compound 318, 7-[1-(1H)-tetrazolylacetamido]-3-pyrazinylthiomethyl-3-cephem-4-carboxylic acid]	0.097 (≈ 0.223 µM)			6.25 (≈ 14.4 µM)	3.1 (≈ 7.14 µM)	3.1 (≈ 7.14 µM)	12.5 (≈ 28.8 µM)	3.1 (≈ 7.14 µM)		12.5 (≈ 28.8 µM)	
O=C(CSc1cnccn1)NC1C(=O)N2C(C(=O)O)=C(CSc3c[n+]([O-])ccn3)CSC12 (centres unmarked) [Compound 316, 7-pyrazinylthioacetamido-3-(pyrazin-2-ylthiomethyl-4-oxide)-3-cephem-4-carboxylic acid]	0.025 (≈ 0.0508 µM)	excellent antistaphylococcal activity, clearly superior to that of known cephalosporins	2.5 (≈ 5.08 µM)	5 (≈ 10.2 µM)	2.5 (≈ 5.08 µM)	12.5 (≈ 25.4 µM)	> 50		40	50 (≈ 102 µM)	MIC (S.abortivoequina): 12.5 µg/mL (≈ 25.4 µM)
